Results: patent publication US5145951A, “Peptides retroviral protease inhibitors comprising 2-amino-2-methylpropionic acid” (priority 1990, dated 1992)
Starred links: 1 amine or outer side, 2 acyl side, 3 side chain; linkers in the order of their positions; H or OH if unused. Non-standard residues stand in square brackets, D forms with d. Residues, ends and D or L forms follow the SMILES beside them. *: point of attachment. X1 = CC(C)C(C[C@H](O)[C@H](CC1CCCCC1)N[*:1])C(=O)[*:2]; NHCH2(2-pyridyl) = c1ccc(CN*)nc1; Boc = CC(C)(C)OC(=O)*; Aib = CC(C)(N)C(=O)O

Target: T1, purified HIV protease (Human immunodeficiency virus type 1 group M subtype B, UniProt P04585)
T1 construct: purified HIV protease was incubated with synthetic peptide
Assay: HIV-specific protease enzyme test (RP-HPLC analysis of cleavage of a synthetic Gag peptide)
Format: biochemical
Details: substance concentration causing 50% inhibition of protease activity; synthetic peptide substrate imitating Gag cleavage site
Method: The results of the examples shown below were determined by the HIV test system described in the following references [compare Hansen, J., Billich, S., Schulze, T., Sukro, S. and Molling, K. (1988), EMBO Journal, Vol. 7, No. 6, pp. 1785-1791]: purified HIV protease was incubated with synthetic peptide which imitates a cleavage site in the Gag precursor protein and represents an in vivo cleavage site of the HIV protease. The resulting cleavage products of the synthetic peptide were analyzed by means of Reverse Phase High Performance Liquid Chromatography (RP-HPLC). The IC50 values indicated relate to the substance concentration which causes a 50% inhibition of the protease activity under the abovementioned test conditions.

## CC[C@H](C)[C@H](NC(=O)C(C[C@H](O)[C@H](CC1CCCCC1)NC(=O)[C@H](CC(N)=O)NC(=O)C(C)(C)NC(=O)OC(C)(C)C)C(C)C)C(=O)NCc1ccccn1 (stereo partly drawn) [Example I, Nα-{Nδ-{Nα-{1-[2-(1,1-dimethylethoxycarbonyl)amino-2-methyl]propanoyl}-(S)-asparaginyl}-1-[5-(S)-amino-6-cyclohexyl-4-(S)-hydroxy-2-(1-methyl)ethyl]-hexanoyl}-(S)-isoleucinyl-2-pyridylmethylamide]
  IC50: 500 nM

## CC[C@H](C)[C@H](NC(=O)C(C[C@H](O)[C@H](CC1CCCCC1)NC(=O)[C@H](CC(N)=O)NC(=O)[C@H](Cc1ccccc1)NC(=O)[C@H](CO)NC(=O)C(C)(C)NC(=O)OC(C)(C)C)C(C)C)C(=O)NCc1ccccn1 (some centres unmarked) [III] (Boc-[Aib]SFN[X1]I-{NHCH2(2-pyridyl)})
  IC50: 5 nM

## CC[C@H](C)[C@H](NC(=O)C(C[C@H](O)[C@H](CC1CCCCC1)NC(=O)[C@H](CC(N)=O)NC(=O)[C@H](Cc1ccccc1)NC(=O)C(C)(C)NC(=O)OC(C)(C)C)C(C)C)C(=O)NCc1ccccn1 (some centres unmarked) [II] (Boc-[Aib]FN[X1]I-{NHCH2(2-pyridyl)})
  IC50: 50 nM

## CC[C@H](C)[C@H](NC(=O)C(C[C@H](O)[C@H](CC1CCCCC1)NC(=O)[C@@H](NC(=O)C(C)(C)NC(=O)OC(C)(C)C)C(C)C)C(C)C)C(=O)NCc1ccccn1 (some centres unmarked) [V]
  IC50: 50 nM

## CC[C@H](C)[C@H](NC(=O)C(C[C@H](O)[C@H](CC1CCCCC1)NC(=O)C(C)(C)NC(=O)OC(C)(C)C)C(C)C)C(=O)NCc1ccccn1 (stereo partly drawn) [Example IV, Nα-{Nδ-{1-[2-(1,1-dimethylethoxycarbonyl)amino-2-methyl]propanoyl}-1-[5-(S)-amino-6-cyclohexyl-4-(S)-hydroxy-2-(1-methyl)ethoyl]hexanoyl}-(S)-isoleucinyl-2-pyridylmethylamide]
  IC50: 100 nM
